Experimental data from EP0769958B1, “INHIBITORS OF LEUKOCYTE ADHESION” (ATHENA NEUROSCIENCES, INC., priority 1994, dated 1996).
Entries after “also recorded” stand apart in the source; their conditions may differ. Bridge positions count the residues as written; N and C are the ends. Ends that are not written are not given here. Peptide text beside a SMILES is read from it.

Experiments:
VLA-4 = target: T1, VLA-4 (Homo sapiens, UniProt P05556+P13612); assay: Jurkat interaction with soluble VCAM-1 (sVCAM-1-IgG), FACS assay of Example 6; format: cell-based; details: for inhibition of interaction of sVCAM-1-IgG with Jurkat cells: Mn+2 and 15/7 present
T1 construct: endogenous in cells; host or cells: Jurkat cells
Text: VCAM-1 was expressed as a soluble fusion protein. The construct expressed the seven extracellular domains of VCAM-1 on the N-terminus, and the human IgG1 heavy chain constant region on the C-terminus. Interaction of the soluble construct with Jurkat cells was monitored by standard FACS analysis, using a fluorescently labeled antibody directed against the construct's human IgG tail as a marker.
The activity of VLA-4 can be regulated. 15/7 is a monoclonal antibody that recognizes an activated conformation of VLA-4 and locks the molecule in the active state, thereby enhancing VLA-4-mediated cell adhesion.
Peptides of different length, and with various amino acid substitutions were synthesized based on the sequence of the CDR3 region of the antibody 21/6 (EGYYGNYGVYA) (SEQ ID No. 4). The peptides were then tested for their ability to inhibit Jurkat interaction with sVCAM-1-IgG in the FACS assay described in Example 6. IC50 values were determined for each peptide using this assay.

VLA-4 integrin = target: T2, VLA-4 integrin (Homo sapiens, UniProt P05556+P13612); assay: Adhesion of Jurkat cells to peptide-BSA conjugates coated onto plastic; format: cell-based; details: peptide conjugated to carrier protein, exposed to the plastic at 3 µg/mL; Figure 1
T2 construct: endogenous in cells; host or cells: Jurkat cells
Description: The peptide used in this example was synthesized based on the sequence of the anti-α4 integrin antibody 21/6 (CGGEGYYGNYGVYA, SEQ ID No. 1). In this example the peptide was conjugated to a large carrier protein via the linker region that was synthesized as part of the peptide itself (in italics). The conjugated peptide was then coated onto plastic, and the ability of the conjugate to support cell adhesion was tested. This method is based on a report by Wayner and Kovach^40.
As a positive control, the fibronectin peptide described by Wayner was synthesized, conjugated to carrier protein, and tested for cell adhesion in parallel with SEQ ID NO. 1 (CGGEILDVPST, SEQ ID No. 2). Both peptide conjugates were exposed to the plastic at a concentration of 3 µg/mL. […] Adhesion was not affected by an antibody against β2 integrin (IOT18), a distinct cell adhesion molecule that is also expressed on the surface of Jurkat cells. Thus, like peptide SEQ ID NO. 2, peptide SEQ ID NO. 1 interacts with Jurkat in an α4 integrin-specific fashion.

T1 sequence (P13612 34-1032): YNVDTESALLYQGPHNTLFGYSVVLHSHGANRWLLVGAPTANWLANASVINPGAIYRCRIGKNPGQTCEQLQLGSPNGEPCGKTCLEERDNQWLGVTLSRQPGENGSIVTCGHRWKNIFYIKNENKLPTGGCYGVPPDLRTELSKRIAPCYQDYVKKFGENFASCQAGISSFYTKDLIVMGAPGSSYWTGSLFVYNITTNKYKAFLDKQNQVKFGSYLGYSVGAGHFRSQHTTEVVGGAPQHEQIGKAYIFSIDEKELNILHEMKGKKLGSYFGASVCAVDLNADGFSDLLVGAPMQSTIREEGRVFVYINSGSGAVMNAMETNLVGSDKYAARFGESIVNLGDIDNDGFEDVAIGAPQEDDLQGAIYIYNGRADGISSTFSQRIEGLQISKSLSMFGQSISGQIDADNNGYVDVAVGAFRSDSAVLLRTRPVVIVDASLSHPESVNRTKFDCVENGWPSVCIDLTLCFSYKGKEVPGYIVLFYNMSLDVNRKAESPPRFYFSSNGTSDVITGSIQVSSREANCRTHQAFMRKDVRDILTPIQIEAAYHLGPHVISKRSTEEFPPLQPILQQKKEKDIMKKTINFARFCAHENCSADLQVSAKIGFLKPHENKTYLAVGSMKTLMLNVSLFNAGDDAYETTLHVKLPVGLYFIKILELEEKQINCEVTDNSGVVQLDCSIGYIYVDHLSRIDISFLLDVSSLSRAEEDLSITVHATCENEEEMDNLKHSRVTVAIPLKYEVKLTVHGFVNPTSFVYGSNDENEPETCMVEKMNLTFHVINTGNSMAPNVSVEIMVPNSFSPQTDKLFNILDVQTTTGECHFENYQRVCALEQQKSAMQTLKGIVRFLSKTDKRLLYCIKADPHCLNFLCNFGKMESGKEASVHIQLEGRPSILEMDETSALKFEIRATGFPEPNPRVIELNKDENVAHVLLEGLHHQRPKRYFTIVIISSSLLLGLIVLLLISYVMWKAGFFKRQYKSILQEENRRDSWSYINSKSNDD
T1 sequence (P05556 21-798): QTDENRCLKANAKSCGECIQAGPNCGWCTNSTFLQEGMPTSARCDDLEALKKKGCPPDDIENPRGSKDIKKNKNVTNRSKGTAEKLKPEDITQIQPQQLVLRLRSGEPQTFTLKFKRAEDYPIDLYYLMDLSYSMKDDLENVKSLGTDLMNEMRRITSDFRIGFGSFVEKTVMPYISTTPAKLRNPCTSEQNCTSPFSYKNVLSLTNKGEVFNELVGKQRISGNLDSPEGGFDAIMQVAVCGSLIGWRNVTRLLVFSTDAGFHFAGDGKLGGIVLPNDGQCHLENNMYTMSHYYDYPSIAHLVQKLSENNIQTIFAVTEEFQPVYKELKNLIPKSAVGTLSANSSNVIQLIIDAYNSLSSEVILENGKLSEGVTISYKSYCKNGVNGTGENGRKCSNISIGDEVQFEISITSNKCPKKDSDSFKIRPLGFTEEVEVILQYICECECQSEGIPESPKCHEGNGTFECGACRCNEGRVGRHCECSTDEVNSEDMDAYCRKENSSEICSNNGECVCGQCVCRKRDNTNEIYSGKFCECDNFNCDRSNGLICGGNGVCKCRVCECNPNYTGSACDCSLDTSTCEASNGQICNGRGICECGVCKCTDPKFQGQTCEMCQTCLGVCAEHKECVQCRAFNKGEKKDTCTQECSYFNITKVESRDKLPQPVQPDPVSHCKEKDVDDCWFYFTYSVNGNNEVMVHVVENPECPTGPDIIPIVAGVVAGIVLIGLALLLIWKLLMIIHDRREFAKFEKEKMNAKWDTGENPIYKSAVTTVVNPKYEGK
T2 sequence (P13612 34-1032): as the sequence (P13612 34-1032) above
T2 sequence (P05556 21-798): as the sequence (P05556 21-798) above

Molecule | inhibition of interaction of sVCAM-1-IgG with Jurkat cells (VLA-4; result in words) | adhesion of Jurkat cells to immobilized peptide conjugate (VLA-4 integrin) | other results
NC(=O)C[C@@H]1NC(=O)CNC(=O)[C@H](Cc2ccccc2)NC(=O)CNC(=O)[C@@H](N)CSSC[C@@H](C(=O)O)NC(=O)[C@H](Cc2ccc(O)cc2)NC(=O)[C@H](CO)NC(=O)[C@H](Cc2c[nH]cn2)NC(=O)[C@H](CCC(=O)O)NC1=O [SEQ ID No. 31] (H-CGFGNEHSYC-OH; disulfide 1-10) | particularly good inhibition |  | 
CC[C@H](C)[C@@H]1NC(=O)[C@H](CCC(N)=O)NC(=O)[C@H]([C@@H](C)O)NC(=O)[C@H](CCCNC(=N)N)NC(=O)[C@@H](N)CSSC[C@@H](C(=O)O)NC(=O)[C@H](CO)NC(=O)[C@H](CC(=O)O)NC1=O [SEQ ID No. 35] (H-CRTQIDSC-OH; disulfide 1-8) |  |  | inhibitory activity compared with parent or linear peptide (VLA-4; result in words, relative to SEQ ID No. 4 (Nos. 27, 17) or SEQ ID No. 34 (No. 35)): more active than the linear peptide
NC(=O)C[C@@H]1NC(=O)CNC(=O)[C@H](Cc2ccccc2)NC(=O)[C@H](Cc2ccc(O)cc2)NC(=O)[C@@H](N)CSSC[C@@H](C(=O)O)NC(=O)[C@H](Cc2ccc(O)cc2)NC(=O)[C@H](CO)NC(=O)[C@H](Cc2c[nH]cn2)NC(=O)[C@H](CCC(=O)O)NC1=O [SEQ ID No. 63] (H-CYFGNEHSYC-OH; disulfide 1-10) |  |  | IC50 (VLA-4; per Example 6: inhibition of Jurkat interaction with sVCAM-1-IgG, FACS, in the presence of Mn+2 and 15/7): ≤ 50 µM
CGGEGYYGNYGVYA [SEQ ID No. 1] |  | bound equally well | 
CGGEILDVPST [SEQ ID No. 2, fibronectin peptide described by Wayner, conjugated to carrier protein; positive control, reference compound] |  | bound equally well | 
STLTMNPVSF [SEQ ID No. 40] | inhibitory; also recorded: quite active in a linear form |  | 
